Measurements from patent US20190017029A1, “Generation of Expandable Cardiovascular Progenitor Cells” (The J. David Gladstone Institutes, a testament trust …, priority 2016, published 2019).

Assays:
Assay type in all cases: cell-based, mouse
[1] = system: ieCPCs; test: Cardiac (CM) differentiation of ieCPCs, cTnT expression; conditions: 20 ng/ml BMP4 or 5 μM IWP2 versus basal differentiation medium
Protocol: For cardiac differentiation, ieCPCs were passaged onto 96-well matrigel-coated plates at a density of […] cells/cm^2 and cultured in serum-free differentiation (SFD) medium for 10 days. IWP2 (5 μM) was added to SFD medium during the first six days to increase the yield of cardiomyocytes (CMs) in the functional characterization assays.
Differentiation efficiency of each cell type was calculated with qPCR, flow cytometry, and/or an In Cell Analyzer 2000 (General Electric Healthcare).
After washing cells three times with PBS, the cells were incubated with isotype-matched Alexa Fluorescence-conjugated secondary antibodies (Invitrogen) for 1 hour at room temperature. […] The expression of cTnT (measured by multiplying staining intensity and area) and Isl1 or α-SMA (percentage in total cells) were monitored and analyzed by an IN Cell Analyzer 2000.
To detect intracellular antigens, dissociated cells were fixed and permeabilized with a BD Cytofix/Cytoperm™ Fixation/Permeabilization Kit (BD Biosciences), and then incubated with antibodies for cTnT (MS-295-P1 Thermo Scientific; 1:200) and α-SMA (A-2547, Sigma-Aldrich; 1:200) at 4° C. overnight. After three washes, cells were incubated with isotype-matched Alexa Fluorescence-conjugated secondary antibodies (Invitrogen) for 1 hour at room temperature and detected by an LSR II Flow Cytometer (BD Biosciences).

[2] = system: Flk-1^+/PdgfR-α^+ cells; test: Flow cytometry of Flk-1+/PdgfR-α+ cells during CASD cardiac reprogramming of 2nd MEFs treated with BACS; conditions: NU6140 4 μM along with BACS from day 8; day 14
Protocol: A Cell-Activation and Signaling-Directed (CASD) system-based cardiac reprogramming was conducted using methods described by Efe et al. (2011). Briefly, 2nd MEFs at passage 3 were seeded onto geltrex (Gibco)-coated plates at a density of 2.5×10^4 cells/well of a 12-well plate in MEF medium (day −2). Doxycycline (DOX; 2 μg/ml, Sigma-Aldrich) was added into the medium one day later (day −1) and the cells were cultured for another day. Medium was then changed to reprogramming medium (knockout DMEM supplemented with 5% knockout serum replacement (KSR), 15% embryonic stem cell (ESC)-qualified FBS, 1× Glutamax, 1×NEAA, 0.1 mM β-mercaptoethanol (β-ME), 1% ESC-qualified nucleosides (Millipore), 0.5 μM Jak inhibitor 1 (JI1; Millipore), and 2 μg/ml DOX) at day 0. This medium was renewed every 2 days. […]
On day 8, the medium was switched to ieCPC basal medium (Advanced DMEM/F12: Neural basal (1:1) supplemented with 1×N2, 1×B27 without Vitamin A, 1× Glutamax, 1×NEAA, 0.05% bovine serum albumin (BSA), and 0.1 mM β-ME) supplemented with BACS (5 ng/ml BMP4, 10 ng/ml Activin A, 3 μM CHIR99021, and 2 μM SU5402 (Tocris Bioscience)). JI1 (0.5 μM) was included to suppress the establishment of pluripotency until the cells were ready for purification at day 13. […]

[3] = system: ieCPC-CMs; test: Beating frequency and Ca2+ transients in ieCPC-CMs, pharmacological studies
Protocol: Contracting cardiomyocytes derived from ieCPCs (ieCPC-CMs) were dispersed by first treating cells with Collagenase B for 5-10 min and then with Accutase for 5 min. Dissociated cells were replated onto matrigel-coated coverslips (Warner Instruments). After visible beating was reconfirmed, the coverslips were loaded with the Ca^2+-sensitive fluorescent indicator Fluo-4 (see below), and then placed in a superfusion bath (Warner Instruments) on a Nikon TiS inverted microscope equipped with a microfluorometer (lonOptix). Superfusion solutions were warmed to 30° C. with a superfusion system and heated perfusion pencil (ValveLink, AutoMate Scientific).
The ieCPC-CMs on coverslips were loaded with Fluo-4 AM in a 1:10 mixture of the indicator dissolved in dry dimethyl sulfoxide at 5 mM, plus Powerload concentrate (Life Technologies). This mixture was diluted 100-fold into extracellular Tyrode's solution and substituted for culture medium in dishes containing coverslips (final indicator concentration, 5 μM). […] Fluo-4 fluorescence transients were recorded with a standard filter set with excitation and emission centered on 480 nm and 535 nm, respectively (Chroma Technology).
Fluorescence was obtained from contracting cells plus a cell-free border using a cell-framing adaptor (IonOptix). Background fluorescence, recorded after removing the cell(s) from the field of view, was subtracted from all recordings. […] Background-corrected fluorescence transients were expressed relative to the diastolic fluorescence between spontaneous APs and were considered to reflect underlying changes in intracellular Ca^2+ concentration. Unless stated, reagents were from Sigma Chem. Co. Pharmacological studies were conducted on the spontaneous fluorescence transients of non-patch-clamped myocytes, and, to maximize coverslip usage, pharmacological agents were applied locally (only to the cell or cluster of interest) with the perfusion pencil.

[4] = system: ieCPC-SMCs; test: Contractile assay of smooth muscle cells in vitro; conditions: 100 μM carbachol; seen in primary SMCs, not in undifferentiated ieCPCs
Protocol: ieCPCs, ieCPC-SMCs, and primary SMCs were treated with carbachol (100 μM, Sigma-Aldrich) and monitored with a Zeiss Axio Observer microscope in a time-lapse manner at 10-minute intervals for 1 hour. Cell-surface areas were then calculated with ImageJ software.

Molecule: Cc1ccc2nc(NC(=O)CSc3nc4c(c(=O)n3-c3ccccc3)SCC4)sc2c1 [IWP2]
- cardiac differentiation of ieCPCs (cTnT) [1]: dramatically enhanced

Molecule: CCN(CC)C(=O)c1ccc(Nc2nc(OCC3CCCCC3)c3[nH]cnc3n2)cc1 [NU6140]
- ratio of Flk-1+/PdgfR-α+ cells [2]: dramatically decreased

Molecule: Cn1c(=O)c2c(ncn2C)n(C)c1=O [caffeine]
- Ca2+ transients (release from sarcoplasmic reticulum) ([3]; 10 mM caffeine): elicited large Ca^2+ transients

Molecule: C[N+](C)(C)CCOC(N)=O [carbachol]
- effect on the isoproterenol-induced increase of frequency ([3]; 10 μM carbachol): blocked
- contraction of ieCPC-SMCs [4]: induced contraction

Molecule: CC(C)NCC(O)c1ccc(O)c(O)c1 (stereo not shown) [isoproterenol]
- frequency of cell contraction and spontaneous Ca2+ transients ([3]; 1 μM isoproterenol): significantly increased

B1: BMP4: member of the group of bone morphogenic proteins and a ventral mesoderm inducer (protein, UniProt P12644 293-408, looked up)
Bone morphogenetic protein 4: SPKHHSQRARKKNKNCRRHSLYVDFSDVGWNDWIVAPPGYQAFYCHGDCPFPLADHLNSTNHAIVQTLVNSVNSSIPKACCVPTELSAISMLYLDEYDKVVLKNYQEMVVEGCGCR
- cardiac differentiation of ieCPCs (cTnT) [1]: significantly impaired
